Test system: inner forearm of each panelist
Experiment: Corneometer analysis of test gel formulations, scaled moisturization performance (SMP)
Format: in vivo
Conditions: 6 hours after single application of gel with 5 wt % active; average of 8 panelists; water = 0, glycerol = 1; 22° C., 50% RH
Procedure: To prepare a gel formulation, deionized water was added to a 4 oz. tall jar that was set up for mixing using an overhead mixer and a jiffy blade. The water was then mixed at a speed that created a good vortex that nearly reached the bottom of the jar (e.g., about 700 rpm). To this, Carbopol® 940 (cross-linked polyacrylate polymer available from Lubrizol, Wickliffe, Ohio) was slowly added and mixed for at least 15 minutes until homogeneous. Triethanolamine (TEA) was then added and the mixing speed was adjusted overhead to about 200 rpm and continued mixing for about 10 minutes (e.g., product viscosity increased). To this mixture was added 5 wt % of the moisturizing agent, as either a single agent or a combination of agents, followed by 0.5 wt % Glydant™ Plus™ (a preservative available from Lonza, Basel, Switzerland) and the remaining, balance water. Mixing was continued at 200 rpm for about 15-20 minutes. The mixture was then removed from the mixer and the final pH was measured. Prior to analysis, samples were centrifuged at 2000 rpm for 15 minutes to remove suspended air pockets from the gel formulation.
About 30 μl of each test gel formulation was applied once (e.g., in a single application with no additional re-applications) in a circle with diameter of about 3 cm on the inner forearm of each panelist. Moisture levels were measured using a Corneometer® CM 825 (available from CK Industries) prior to application of the test gel formulations, and at 6 hour and 30 hour intervals after application, at a temperature of 22° C. and relative humidity of 50%.
To facilitate more meaningful comparisons of the corneometer data for the different test formulations, the following adjustment were made to minimize the variations in the response of humectant treatment: the moisturization performance for glycerol was defined to be 1, and that for water to be zero, then the scaled moisturization performance (SMP) for a specific moisturizing active was defined as: […]
RActive, Rwater, and Rglycerol were the actual corneometer readings of the test gel formulations comprising the active moisturizing agent(s), water, and glycerol, respectively, for an individual panelist at a specific time after the initial treatment. The overall SMP of each tested activewas then the average of SMP over 8 panelists. […] The SMP values illustrated in FIG. 4 provide narrower standard deviations over 8 panelists when compared to actual corneometer readings in FIG. 3.
Using this procedure, corneometer measurements were taken at 6 hours and 30 hours for hydroxyethyl urea, glycerol, the DGA acetamide:glycerol (83:17 wt %) of Example 1, the DGA Acetamide of Example 2, a 1:1 mixture of the DGA Acetamide of Example 2 with hydroxyethyl urea, and a 1:1 mixture of the DGA Acetmaide of Example 2 with glycerol. Measurements were taken at six hours and 30 hours on eight subjects, and calculated as scaled moisturization performance values.

| SMILES | Corneometer SMP results, 6 hours |
| --- | --- |
| NC(=O)NCCO [A, Hydroxyethyl urea] | 0.91 |
| CC(=O)NCCOCCO [C, N-acetyl diglycolamine] | 0.80 |
| OCC(O)CO [D, Glycerol] | 1.0 |

Same assay, conditions: 30 hours after single application of gel with 5 wt % active; average of 8 panelists; water = 0, glycerol = 1; 22° C., 50% RH

| SMILES | Corneometer SMP results, 30 hours |
| --- | --- |
| NC(=O)NCCO [A, Hydroxyethyl urea] | 1.03 |
| CC(=O)NCCOCCO [C, N-acetyl diglycolamine] | 0.92 |
| OCC(O)CO [D, Glycerol] | 1.0 |

Test system: not listed separately
Experiment: Dynamic Vapor Sorption (DVS) analysis, equilibrium water absorption
Format: physicochemical
Conditions: DVS at 50% humidity, 25° C., single moisturizing agents / Ex. 1 and 2 products
Procedure: Dynamic Vapor Sorption (DVS) technique was used to measure the moisture intake of a specific compound at certain humidity level. DVS Intrinsic instrument manufactured by Surface Measurement Systems UK Ltd. (London, United Kingdom) was used to measure DVS. The following measurement procedure was used to determine the water vapor absorption of a specific composition.
A uniform aqueous solution of a target composition was made at 50% concentration. About 1.2 to 1.6 mg of the prepared aqueous solution was added to DVS instrument at zero tare balance. The temperature was then set at 25° C. A measurement was performed at 90% humidity to ensure that the sample absorbs the highest level of water in order to minimize the mass transfer barrier during the evaporation process. The dynamics of water absorption was determined by the weight change per minute; with water absorption equilibrium defined as the time at which the weight change per minute was less than 0.005% of the sample weight. The equilibrium weight at 0% humidity is the sample weight by itself. Thus, the percentage of equilibrium water absorption at various humidity levels was calculated.
Using the above procedure, DVS was used to evaluate water absorption for compositions comprising DGA Acetamide, other moisturizing agents, and combinations of DGA Acetamide and various additional moisturizing agents. First, DVS values were obtained at 50% humidity for the DGA acetamide products of Examples 1 and 2 above and other selected moisturizing agents.
Then, 1:1 mixtures based on weight were made of each of the DGA Acetamide products of Examples 1 and 2 above with each of the other four moisturizing agents, where the DGA acetamide product of Example 1 is DGA Acetamide:glycerol (83 wt %:17 wt %) and the DGA acetamide product of Example 2 is substantially 100% DGA acetamide. DVS measurements were taken at 50% humidity, using the same amount of total moisturizing agent. It was expected that the DVS values of the mixtures with the other four moisturizing agents would have been the average of the DVS values of each of the moisturizing agents individually, based on the weight percent of each in the mixture.

| % water absorbed (based on weight of moisturizing agent) [%] | SMILES |
| --- | --- |
| 19.7 | NC(=O)NCCO [A, Hydroxyethyl urea] |
| 26.9 | CC(=O)NCCOCCO [C, N-acetyl diglycolamine] |
| 27.7 | OCC(O)CO [D, Glycerol] |

| SMILES | % water absorbed (based on weight of moisturizing agent) [%] |
| --- | --- |
| O=C1CCC(C(=O)[O-])N1.[Na+] (centres unmarked) [E, sodium pyrrolidone carboxylate] | 28.7 |
| CC(O)C(=O)[O-].[Na+] (centres unmarked) [F, Sodium lactate] | 35.1 |
